Test results published in PubChem BioAssay AID463199 (Broad Institute, 2010).
Active and inactive are the calls of the source.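 How the source made its calls: active means AC50, the dose giving half-maximal effect, exceeds a fixed cutoff for a compound that rescues yeast growth under heat; inactive means the rest, inconclusive results apart.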

System: S. cerevisiae Burl-1 ts mutant growth, BacTiter-Glo, 38.5C 24 h
Experiment: restored growth of temperature-sensitive Burl-1 yeast – whole organism, S. cerevisiae, Burl-1 ts mutant, luminescence, counter-screen for SUMOylation pathway inhibitor project, dose response (AID 463199)

| Compound | AC50 |
| --- | --- |
| O=C(c1ccco1)N1CCN(C2CC(=O)N(c3ccc(F)c(Cl)c3)C2=O)CC1 (stereo not drawn) | > 42 µM (inactive) |
| COc1ccc(C2SCC(=O)Nc3c2c(=O)[nH]n3C2CCCCC2)cc1 (stereo not drawn) | > 42 µM (inactive) |
| CCC(CC)C(=O)N1CCCC(c2nc(-c3cccs3)no2)C1 (stereo not drawn) | > 42 µM (inactive) |
| Cc1nn(C(C)(C)C)c(OC(=O)c2ccc3c(c2)OCO3)c1S(=O)(=O)c1ccccc1 | > 42 µM (inactive) |
| CCOCCCNC(=O)C(c1ccc(OC)cc1)N(Cc1cccs1)C(=O)c1ccccn1 (stereo not drawn) | > 42 µM (inactive) |
| CC1C(=O)CC(c2ccccc2)NC1c1ccccc1 (stereo not drawn) | > 42 µM (inactive) |
| CC1(C)CCC(=O)N2CC[C@H]3C[C@H](OC(=O)Nc4ccc(Br)cc4)C[C@@H]1[C@H]32 | > 42 µM (inactive) |
| CCCOc1ccc(C(=O)NCc2ccco2)cc1 | > 42 µM (inactive) |
| COc1ccccc1NC(=O)c1nn(-c2cccc(C(F)(F)F)c2)ccc1=O | 12 µM |
| O=C1CCC(/C=C/c2ccccc2)=NN1Cc1ccc(Cl)c(Cl)c1 | > 42 µM (inactive) |
| O=C1OC(Cc2ccccn2)C(O)=C1C1=NCCCN1 (stereo not drawn) | > 42 µM (inactive) |
| CCCCn1c(N)c(N(CCOC)C(=O)c2ccc(Cl)c(S(=O)(=O)N3CCCCC3)c2)c(=O)[nH]c1=O | > 42 µM (inactive) |
| NS(=O)(=O)c1cccc(NC(=O)CSc2nnnn2-c2ccccc2)c1 | > 42 µM (inactive) |
| O=C(c1ccccc1F)N1CCN=C1SCc1cccnc1 | > 42 µM (inactive) |
| COc1ccc(C(C)=O)cc1CN(c1ccccc1OC)S(=O)(=O)c1cccs1 | > 42 µM (inactive) |
| COCCCNC(=O)c1cc2cc([N+](=O)[O-])cc(OC)c2oc1=O | > 42 µM (inactive) |
| Clc1ccc(CN(Cc2ccccc2)C(c2cccs2)c2nnnn2C2CCCC2)cc1 (stereo not drawn) | > 42 µM (inactive) |
| COc1cc(/C=C(\C#N)C(=O)Nc2ccc(C(=O)O)cc2)ccc1OC(=O)c1cccc(F)c1 | > 42 µM (inactive) |
| Cc1c(NC(=O)c2ccc(N(C)S(C)(=O)=O)cc2)c(=O)n(-c2ccccc2)n1C | > 42 µM (inactive) |

| Compound | AC50 |
| --- | --- |
| O=S1(=O)C=C(Sc2nnc(-c3ccccc3)o2)c2ccccc21 | 8.23 µM |
| CCCN1CCN(CCCNC(=O)CCn2nc(-c3ccccc3)ccc2=O)CC1 | > 42 µM (inactive) |
| CCOC(=O)c1cc(C#N)c(Oc2ccccc2OC)nc1-c1ccccc1 | > 42 µM (inactive) |
| Cc1ccc(C(=O)NCCCN2CCOCC2)cc1 | > 42 µM (inactive) |
| O=C(COC(=O)[C@@H]1CC(O)CN1S(=O)(=O)c1ccccc1[N+](=O)[O-])Nc1ccc2ccccc2c1 (stereo partly drawn) | > 42 µM (inactive) |
| Cc1ccc(-c2nnc(SCC#N)n2N)cc1 | > 42 µM (inactive) |
| O=C1CN(C(=O)c2ccccc2F)C(c2ccccc2)c2cc(Cl)ccc2N1 (stereo not drawn) | > 42 µM (inactive) |
| O=c1[nH]c(CN2CCN(CCO)CC2)nc2ccccc12 | > 42 µM (inactive) |
| Cc1nn(C)c(C)c1/C=N/NC(=O)C(C)(C)Oc1ccc(Cl)cc1 | > 42 µM (inactive) |
| Cc1sc(NC(=O)c2ccco2)c(C(c2ccc(F)cc2)N2CCN(C)CC2)c1C (stereo not drawn) | > 42 µM (inactive) |
| Cc1ccc(S(=O)(=O)N2CCOCC2)cc1NC(=O)COC(=O)CNC(=O)c1ccccc1 | > 42 µM (inactive) |
| O=S(=O)(c1ccc(S(=O)(=O)N2CCCC2)cc1)N1CCCCC1 | > 42 µM (inactive) |
| COc1ccc2[nH]c(=O)c(CN(C(=O)c3ccccn3)c3ccccc3)cc2c1 | > 42 µM (inactive) |
| CC(C)Cc1cc(CN2CCC(CO)(Cc3ccccc3)CC2)[nH]n1 | > 42 µM (inactive) |
| CC(C)C(O)(C(=O)NNc1ccccc1)C(C)C | > 42 µM (inactive) |
| CC12CCC(=O)N1C(C(=O)Nc1ccccc1F)CS2 (stereo not drawn) | > 42 µM (inactive) |
| CCN(CC)c1ccc2c(C)c(CN3CCOCC3)c(=O)oc2c1 | > 42 µM (inactive) |
| CCCCCCCCCCOC(=O)Cn1c(COc2ccc(OC)cc2)[n+](C)c2ccccc21 | > 42 µM (inactive) |
| O=c1cc(COc2ncnc3ccccc23)nc2sccn12 | > 42 µM (inactive) |
